Experimental data from PubChem BioAssay (NCI).
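At the GI50, growth is halved. TGI marks complete inhibition of growth.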

What was measured:
Test in all cases: NCI-60 cell line screen, 384-well format; in the data active = GI50 below about 0.43 µM; inactive = the rest
[1] = test system: OVCAR-5 ovarian
[2] = test system: CAKI-1 renal
[3] = test system: U251 glioblastoma
[4] = test system: M14 melanoma
[5] = test system: MALME-3M melanoma
[6] = test system: SF-539 CNS
[7] = test system: NCI-H522 lung
[8] = test system: SN12C renal
[9] = test system: UACC-62 melanoma
[10] = test system: TK-10 renal
[11] = test system: MOLT-4 leukemia
[12] = test system: HCC-2998 colon
[13] = test system: HL-60(TB) leukemia
[14] = test system: RXF 393 renal
[15] = test system: NCI-H23 lung
[16] = test system: OVCAR-4 ovarian
[17] = test system: OVCAR-8 ovarian
[18] = test system: MDA-MB-468 breast
[19] = test system: SNB-75 CNS
[20] = test system: IGROV1 ovarian
[21] = test system: PC-3 prostate
[22] = test system: NCI-H226 lung
[23] = test system: COLO 205 colon
[24] = test system: DU-145 prostate
[25] = test system: SF-268 CNS
[26] = test system: HCT-15 colon
[27] = test system: 786-0 renal
[28] = test system: HS 578T breast
[29] = test system: HOP-92 NSCLC
[30] = test system: MDA-MB-231 breast
[31] = test system: T-47D breast
[32] = test system: SK-OV-3 ovarian
[33] = test system: MCF7 breast
[34] = test system: A549 NSCLC
[35] = test system: OVCAR-3 ovarian
[36] = test system: A498 renal
[37] = test system: ACHN renal
[38] = test system: HCT-116 colon
[39] = test system: SNB-19 CNS
[40] = test system: SR leukemia
[41] = test system: BT-549 breast
[42] = test system: SW-620 colon
[43] = test system: HT29 colon
[44] = test system: RPMI-8226 leukemia
[45] = test system: UO-31 renal
[46] = test system: NCI/ADR-RES ovarian
[47] = test system: NCI-H460 NSCLC
[48] = test system: LOX IMVI melanoma
[49] = test system: KM12 colon
[50] = test system: SF-295 CNS
[51] = test system: SK-MEL-28 melanoma
[52] = test system: NCI-H322M lung
[53] = test system: CCRF-CEM leukemia
[54] = test system: HOP-62 NSCLC
[55] = test system: EKVX NSCLC

COC(=O)N[C@@H](C)CNc1nccc(-c2cn(C(C)C)nc2-c2cc(Cl)cc(NS(C)(=O)=O)c2F)n1
> 76.8 µM: TGI [42]
active: GI50 [4] < 0.01 µM | GI50 [5] < 0.01 µM | GI50 [9] < 0.01 µM | GI50 [23] < 0.01 µM | GI50 [43] < 0.01 µM | GI50 [51] < 0.01 µM
40.2 µM: TGI [30]
39.7 µM: TGI [12]
> 100 µM: TGI [1] | TGI [6] | TGI [8] | TGI [10] | TGI [11] | TGI [15] | TGI [16] | TGI [17] | TGI [18] | TGI [19] | TGI [20] | TGI [21] | TGI [22] | TGI [24] | TGI [25] | TGI [26] | TGI [29] | TGI [31] | TGI [32] | TGI [33] | TGI [35] | TGI [36] | TGI [37] | TGI [39] | TGI [41] | TGI [44] | TGI [45] | TGI [46] | TGI [47] | TGI [49] | TGI [50] | TGI [53] | TGI [54] | TGI [55]
23.6 µM: TGI [43]
34.9 µM: TGI [14]
> 73.3 µM: TGI [27]
40.8 µM: TGI [28]
< 0.0175 µM: TGI [4]
> 71.9 µM: TGI [38]
> 95.8 µM: TGI [52]
inactive: GI50 [1] 33.2 µM | GI50 [2] 0.728 µM | GI50 [3] 17.2 µM | GI50 [6] 43.3 µM | GI50 [7] 3.91 µM | GI50 [8] 14.9 µM | GI50 [10] 20.7 µM | GI50 [11] 29.6 µM | GI50 [12] 11.9 µM | GI50 [13] 2.06 µM | GI50 [14] 6.32 µM | GI50 [15] 4.15 µM | GI50 [16] > 100 µM | GI50 [17] 38.2 µM | GI50 [18] 11.5 µM | GI50 [19] 14.8 µM | GI50 [20] 0.929 µM | GI50 [21] 70.9 µM | GI50 [22] 37 µM | GI50 [24] 6.7 µM | GI50 [25] > 84.8 µM | GI50 [26] 9.03 µM | GI50 [27] 7.06 µM | GI50 [28] 14.7 µM | GI50 [29] 7.13 µM | GI50 [30] 3.17 µM | GI50 [31] > 20 µM | GI50 [32] 0.806 µM | GI50 [33] > 100 µM | GI50 [34] 16.3 µM | GI50 [35] 48.8 µM | GI50 [36] 1.13 µM | GI50 [37] 3.54 µM | GI50 [38] 1.92 µM | GI50 [39] > 100 µM | GI50 [40] 6.45 µM | GI50 [41] 38.1 µM | GI50 [42] 6.22 µM | GI50 [44] > 100 µM | GI50 [45] 6.96 µM | GI50 [46] > 100 µM | GI50 [47] 32.5 µM | GI50 [48] 0.498 µM | GI50 [49] 36.5 µM | GI50 [50] 97.6 µM | GI50 [52] 6.15 µM | GI50 [53] 42.2 µM | GI50 [54] 61.9 µM | GI50 [55] 13.8 µM
20.6 µM: TGI [40]
< 0.01 µM: TGI [5] | TGI [9] | TGI [51]
97.9 µM: TGI [7]
65.9 µM: TGI [3]
> 61.2 µM: TGI [48]
> 92.6 µM: TGI [34]
> 47.9 µM: TGI [2]
6.91 µM: TGI [13]
